Legend:
Assay in all cases: combination Emax (second highest fraction inhibited in the dose matrix, 72 h); higher = more inhibition; extreme values may be limits of the assay
[1] = system: BFTC-905 (Bladder Carcinoma)
Summary of the method: (§1)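 Cell lines grown in DMEM/F12 or RPMI with 10% FBS were plated in 1536-well plates and held 24 hours at 37°C, 5% CO2 before 72 hours of exposure to two-drug dose matrices, with DMSO typically at 0.2%. CellTiter-Glo 2.0 luminescence gave viability, which was converted to inhibition. Vehicle wells were set to 0 and blank wells to 1. Combination Emax is the second-highest inhibition in the matrix, and Bliss excess is the observed combination effect minus the expected EA + EB − EA·EB, where EA and EB are the single-agent effects.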

[2] = system: CAMA-1 (Breast Carcinoma)
Summary of the method: as §1

[3] = system: CHP-212 (Neuroblastoma)
Summary of the method: as §1

[4] = system: EVSA-T (Breast Carcinoma)
Summary of the method: as §1

[5] = system: HL-60 (Acute Myeloid Leukemia)
Summary of the method: as §1

[6] = system: K-562 (Chronic Myelogenous Leukemia)
Summary of the method: as §1

[7] = system: KARPAS-45 (T-Lymphoblastic Leukemia)
Summary of the method: as §1

[8] = system: KYSE-180 (Esophageal Squamous Cell Carcinoma)
Summary of the method: as §1

[9] = system: L-540 (Hodgkin's Lymphoma)
Summary of the method: as §1

[10] = system: MEL-JUSO (Melanoma)
Summary of the method: as §1

[11] = system: MKN28 (Gastric Carcinoma)
Summary of the method: as §1

[12] = system: MS751 (Cervical Carcinoma)
Summary of the method: as §1

[13] = system: PANC-08-13 (Pancreatic Carcinoma)
Summary of the method: as §1

[14] = system: SU-DHL-8 (B-Cell Non-Hodgkin's Lymphoma)
Summary of the method: as §1

[15] = system: SW1417 (Colorectal Carcinoma)
Summary of the method: as §1

[16] = system: SW837 (Colorectal Carcinoma)
Summary of the method: as §1

[17] = system: TE-6 (Esophageal Squamous Cell Carcinoma)
Summary of the method: as §1

[18] = system: TOV-112D (Ovarian Carcinoma)
Summary of the method: as §1

[19] = system: U251 (Low Grade Glioma)
Summary of the method: as §1

[20] = system: WIL2-NS (Non-Cancerous)
Summary of the method: as §1

| SMILES | combination Emax [1] | combination Emax [2] | combination Emax [3] | combination Emax [4] | combination Emax [5] | combination Emax [6] | combination Emax [7] | combination Emax [8] | combination Emax [9] | combination Emax [10] | combination Emax [11] | combination Emax [12] | combination Emax [13] | combination Emax [14] | combination Emax [15] | combination Emax [16] | combination Emax [17] | combination Emax [18] | combination Emax [19] | combination Emax [20] |
| --- | --- | --- | --- | --- | --- | --- | --- | --- | --- | --- | --- | --- | --- | --- | --- | --- | --- | --- | --- | --- |
| C=CCn1c(=O)c2cnc(Nc3ccc(N4CCN(C)CC4)cc3)nc2n1-c1cccc(C(C)(C)O)n1 [AZD1775] + O=C(c1cc(Cc2n[nH]c(=O)c3ccccc23)ccc1F)N1CCN(C(=O)C2CC2)CC1 [Olaparib] (first compound max 1 µM, partner max 10 µM) | 0.55 | 0.149 | 0.831 | 0.289 | 0.36 | 0.845 | 0.847 | 0.774 | 0.946 | 0.401 | 0.573 | 0.215 | 0.329 | 0.877 | 0.564 | 0.39 | 0.319 | 0.427 | 0.442 | 0.931 |
| CCN(CCO)CCCOc1ccc2c(Nc3cc(CC(=O)Nc4cccc(F)c4)[nH]n3)ncnc2c1 [AZD2811] + C=CCn1c(=O)c2cnc(Nc3ccc(N4CCN(C)CC4)cc3)nc2n1-c1cccc(C(C)(C)O)n1 [AZD1775] (first compound max 1 µM, partner max 1 µM) | 0.531 | 0.171 | 0.843 | 0.257 | 0.845 | 0.811 | 0.936 | 0.726 | 0.916 | 0.333 | 0.5 | 0.599 | 0.268 | 0.929 | 0.412 | 0.15 | 0.236 | 0.712 | 0.266 | 0.944 |
| CCN(CCO)CCCOc1ccc2c(Nc3cc(CC(=O)Nc4cccc(F)c4)[nH]n3)ncnc2c1 [AZD2811] + C[C@@H]1COCCN1C2=NC(=NC(=C2)C3(CC3)[S@](=N)(=O)C)C4=C5C=CNC5=NC=C4 [AZD6738] (first compound max 1 µM, 7x7, partner max 10 µM) | 0.838 | 0.304 | 0.791 | 0.289 | 0.899 | 0.881 | 0.948 | 0.823 | 0.921 | 0.357 | 0.519 | 0.492 | 0.36 | 0.918 | 0.341 | 0.361 | 0.543 | 0.707 | 0.533 | 0.979 |
| CCN(CCO)CCCOc1ccc2c(Nc3cc(CC(=O)Nc4cccc(F)c4)[nH]n3)ncnc2c1 [AZD2811] + O=C(c1cc(Cc2n[nH]c(=O)c3ccccc23)ccc1F)N1CCN(C(=O)C2CC2)CC1 [Olaparib] (first compound max 1 µM, 7x7, partner max 10 µM) | 0.502 | 0.206 | 0.771 | 0.31 | 0.83 | 0.366 | 0.882 | 0.176 | 0.509 | 0.243 | 0.238 | 0.243 | 0.166 | 0.738 | 0.109 | 0.183 | 0.212 | 0.394 | 0.273 | 0.397 |
| CN(CCO)CC[C@H](CSc1ccccc1)Nc1ccc(S(=O)(=O)NC(=O)c2ccc(N3CCC([C@@H](O)c4ccccc4-c4ccc(Cl)cc4)CC3)cc2)cc1S(=O)(=O)C(F)(F)F [AZD4320] + C=CCn1c(=O)c2cnc(Nc3ccc(N4CCN(C)CC4)cc3)nc2n1-c1cccc(C(C)(C)O)n1 [AZD1775] (first compound max 1 µM, partner max 1 µM) | 0.759 | 0.182 | 0.809 | 0.191 | 0.956 | 0.871 | 1 | 0.783 | 0.979 | 0.73 | 0.536 | 0.262 | 0.492 | 1 | 0.853 | 0.461 | 0.556 | 0.496 | 0.289 | 0.973 |
| CN(CCO)CC[C@H](CSc1ccccc1)Nc1ccc(S(=O)(=O)NC(=O)c2ccc(N3CCC([C@@H](O)c4ccccc4-c4ccc(Cl)cc4)CC3)cc2)cc1S(=O)(=O)C(F)(F)F [AZD4320] + CCN(CCO)CCCOc1ccc2c(Nc3cc(CC(=O)Nc4cccc(F)c4)[nH]n3)ncnc2c1 [AZD2811] (first compound max 1 µM, 7x7, partner max 1 µM) | 0.856 | 0.616 | 0.758 | 0.704 | 0.958 | 0.333 | 1 | 0.181 | 0.594 | 0.446 | 0.184 | 0.348 | 0.422 | 1 | 0.759 | 0.508 | 0.524 | 0.485 | 0.42 | 0.311 |
| CN(CCO)CC[C@H](CSc1ccccc1)Nc1ccc(S(=O)(=O)NC(=O)c2ccc(N3CCC([C@@H](O)c4ccccc4-c4ccc(Cl)cc4)CC3)cc2)cc1S(=O)(=O)C(F)(F)F [AZD4320] + CN(C)CCCOc1ccc(-c2ccc3ncc4c(c3c2)n(C2CCOCC2)c(=O)n4C)cn1 [AZD0156] (first compound max 1 µM, 7x7, partner max 1 µM) | 0.15 | 0.117 | 0.278 | 0.163 | 0.898 | 0.345 | 0.988 | 0.112 | 0.224 | 0.212 | 0.0805 | 0.101 | 0.352 | 0.957 | 0.742 | 0.191 | 0.391 | 0.222 | 0.185 | 0.22 |
| CN(CCO)CC[C@H](CSc1ccccc1)Nc1ccc(S(=O)(=O)NC(=O)c2ccc(N3CCC([C@@H](O)c4ccccc4-c4ccc(Cl)cc4)CC3)cc2)cc1S(=O)(=O)C(F)(F)F [AZD4320] + C[C@@H](Nc1cc(F)cc(F)c1)c1cc(C(=O)N(C)C)cc2c(=O)cc(N3CCOCC3)oc12 [AZD8186] (first compound max 1 µM, 7x7, partner max 3 µM) | 0.851 | 0.84 | 0.752 | 0.885 | 0.958 | 0.313 | 1 | 0.177 | 0.668 | 0.428 | 0.263 | 0.3 | 0.481 | 1 | 0.707 | 0.395 | 0.563 | 0.205 | 0.635 | 0.652 |
| CN(CCO)CC[C@H](CSc1ccccc1)Nc1ccc(S(=O)(=O)NC(=O)c2ccc(N3CCC([C@@H](O)c4ccccc4-c4ccc(Cl)cc4)CC3)cc2)cc1S(=O)(=O)C(F)(F)F [AZD4320] + Cc1cc2ncnn2cc1Nc1ncc2c(n1)n(C1CCOCC1)c(=O)n2C [AZD7648] (first compound max 1 µM, 7x7, partner max 10 µM) | 0.117 | 0.229 | 0.379 | 0.191 | 0.923 | 0.17 | 0.991 | 0.0754 | 0.502 | 0.181 | 0.153 | 0.146 | 0.391 | 0.942 | 0.798 | 0.201 | 0.524 | 0.318 | 0.118 | 0.335 |
| CN(CCO)CC[C@H](CSc1ccccc1)Nc1ccc(S(=O)(=O)NC(=O)c2ccc(N3CCC([C@@H](O)c4ccccc4-c4ccc(Cl)cc4)CC3)cc2)cc1S(=O)(=O)C(F)(F)F [AZD4320] + Cn1cnc2c(F)c(Nc3ccc(Br)cc3Cl)c(C(=O)NOCCO)cc21 [Selumetinib] (first compound max 1 µM, 7x7, partner max 3 µM) | 0.825 | 0.468 | 0.925 | 0.506 | 0.994 | 0.516 | 0.996 | 0.19 | 0.716 | 0.432 | 0.356 | 0.413 | 0.528 | 0.988 | 0.935 | 0.489 | 0.593 | 0.248 | 0.651 | 0.633 |
| COc1nnc2ccc(N3CCC(c4ccc(OCCN5CCN(C)C(=O)[C@H]5C)cc4)CC3)nn12 [AZD5153] + C=CCn1c(=O)c2cnc(Nc3ccc(N4CCN(C)CC4)cc3)nc2n1-c1cccc(C(C)(C)O)n1 [AZD1775] (first compound max 1 µM, partner max 1 µM) | 0.63 | 0.453 | 0.958 | 0.942 | 0.932 | 0.616 | 1 | 0.742 | 0.925 | 0.491 | 0.525 | 0.935 | 0.679 | 0.994 | 0.601 | 0.715 | 0.731 | 0.815 | 0.799 | 0.878 |
| COc1nnc2ccc(N3CCC(c4ccc(OCCN5CCN(C)C(=O)[C@H]5C)cc4)CC3)nn12 [AZD5153] + CC1(C)CCC(CN2CCN(c3ccc(C(=O)NS(=O)(=O)c4ccc(NCC5CCOCC5)c([N+](=O)[O-])c4)c(Oc4cnc5[nH]ccc5c4)c3)CC2)=C(c2ccc(Cl)cc2)C1 [Venetoclax] (first compound max 1 µM, 7x7, partner max 1 µM) | 0.633 | 0.456 | 0.885 | 0.938 | 0.99 | 0.437 | 1 | 0.293 | 0.755 | 0.215 | 0.446 | 0.702 | 0.625 | 0.663 | 0.463 | 0.551 | 0.572 | 0.588 | 0.449 | 0.807 |

Source: the supplement of paper PMC11061612
